PubChem BioAssay (NCI)
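In this assay, cells in 96-well plates receive the compound at five concentrations for 48 hours. Endpoints are linearly interpolated between the surrounding concentrations. The concentration for 50% growth inhibition is given as GI50. Definition used: TGI = concentration required for complete inhibition of growth.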

Experiments:
Assay in all cases: inhibition of tumour cell growth, NCI panel, 48 h
[1] = system: MOLT-4 leukemia
[2] = system: A498 renal
[3] = system: SK-MEL-2 melanoma
[4] = system: EKVX NSCLC
[5] = system: RPMI-8226 leukemia
[6] = system: HS 578T breast
[7] = system: MDA-MB-435
[8] = system: BT-549 breast
[9] = system: HT29 colon
[10] = system: HCC-2998 colon
[11] = system: NCI-H522 lung
[12] = system: SNB-75 CNS
[13] = system: OVCAR-8 ovarian
[14] = system: UO-31 renal
[15] = system: IGROV1 ovarian
[16] = system: SNB-19 CNS
[17] = system: SK-MEL-5 melanoma
[18] = system: MDA-MB-231 breast
[19] = system: DU-145 prostate
[20] = system: RXF 393 renal
[21] = system: A549 NSCLC
[22] = system: COLO 205 colon
[23] = system: TK-10 renal
[24] = system: LOX IMVI melanoma
[25] = system: SK-MEL-28 melanoma
[26] = system: MALME-3M melanoma
[27] = system: HOP-62 NSCLC
[28] = system: HCT-116 colon
[29] = system: KM12 colon

SMILES: COc1cc(NC(=O)c2ccc(C(F)(F)F)nc2Nc2cc(Cl)ccc2C)cc(OC)c1OC
- TGI [1]: 0.823 µM
- GI50 [2]: 4.14 µM
- TGI [2]: 18.2 µM
- GI50 [3]: 8.16 µM
- TGI [3]: 28.6 µM
- GI50 [4]: 4.54 µM
- TGI [4]: 37.6 µM
- GI50 [5]: 1.18 µM
- TGI [5]: 16.3 µM
- GI50 [6]: 3.9 µM
- TGI [6]: 19.4 µM
- GI50 [7]: 4.94 µM
- TGI [7]: 34.2 µM
- GI50 [8]: 6.56 µM
- TGI [8]: 21.4 µM
- GI50 [9]: 8.12 µM
- TGI [9]: 22.9 µM
- GI50 [10]: 0.985 µM
- TGI [10]: 15 µM
- GI50 [11]: 2.93 µM
- TGI [11]: 18.2 µM
- GI50 [12]: 3.07 µM
- TGI [12]: 24.4 µM
- GI50 [13]: 10.8 µM
- TGI [13]: > 80.1 µM
- GI50 [14]: 3.48 µM
- TGI [14]: 16 µM
- GI50 [15]: 0.852 µM
- TGI [15]: 20.2 µM
- GI50 [16]: 10.4 µM
- TGI [16]: 30.5 µM
- GI50 [17]: 1.75 µM
- TGI [17]: 12.3 µM
- GI50 [18]: 2.94 µM
- TGI [18]: 14.3 µM
- GI50 [19]: 12.6 µM
- TGI [19]: 39.6 µM
- GI50 [20]: 6.52 µM
- TGI [20]: 27.9 µM
- GI50 [21]: 6 µM
- TGI [21]: 45.7 µM
- GI50 [22]: 7 µM
- TGI [22]: 20.6 µM
- GI50 [23]: 15.8 µM
- TGI [23]: > 67.9 µM
- GI50 [24]: 7.06 µM
- TGI [24]: 20 µM
- GI50 [25]: 8.74 µM
- TGI [25]: 27 µM
- GI50 [26]: 9.84 µM
- TGI [26]: 47.7 µM
- GI50 [27]: 5.1 µM
- TGI [27]: 16.6 µM
- GI50 [28]: 2.93 µM
- TGI [28]: 14.1 µM
- GI50 [29]: 4.51 µM
- TGI [29]: 22 µM
